Measurements: patent US9278956B1, “Small-molecule inhibitors of Rac1 in metastatic cancer cells” (University of Puerto Rico, priority 2012, dated 2016)
Read-outs that look alike come from different tables or passages of the source.

Key:
Rac [1] = details: cited from earlier work
Rac [2] = assay: Rac.GTP pull-down (GST-PAK1 p21 binding domain), MDA-MB-435 cells; assay type: cell-based, human
Description: (§1) Rho, Rac, and Cdc42 activities were analyzed from MDA-MB-435 cell lysates by pulldown assays using GST-Rho binding domain from Rhotekin to isolate active GTP bound Rho, and a GST-p21 binding domain of PAK1 to isolate active Rac.GTP or Cdc42.GTP. Active and total Rho GTPases were identified by western blotting with specific antibodies: anti RhoA, anti Rac (1,2,3), anti Rac3, or anti Cdc42 (Cell Signaling Technology, Inc., Danvers, Mass.).
(§2) Cell lysates or pulldowns were western blotted using routine laboratory procedures. Anti-RhoA, -Rac (1,2,3), -Cdc42, -p-PAK^Thr423 antibodies were from Cell Signaling Technology, Inc., Danvers, Mass. Anti Vav2 was from Zymed, San Francisco, Calif.; and Rac3, PAK1, Tiam-1, and Trio antibodies were from Santa Cruz Biotechnology, Inc., Santa Cruz, Calif.

Rac [3] = assay: Rac.GTP pull-down (GST-PAK1 p21 binding domain), MDA-MB-231 cells; assay type: cell-based, human; details: read-out: IC50 for inhibition of Rac activity
Description: as §1, §2

Rac3 = target: T1, Rac3 (Homo sapiens, UniProt P60763); assay: Rac3-GTP pull-down, MDA-MB-435 cells; assay type: cell-based
T1 construct: endogenous in cells; host or cells: MDA-MB-435
Description: as §1, §2

Cdc42 = target: T2, Cdc42 (Homo sapiens, UniProt P60953); assay: Cdc42-GTP pull-down, MDA-MB-435 cells; assay type: cell-based
T2 construct: endogenous in cells; host or cells: MDA-MB-435
Description: as §1, §2

RhoA = target: T3, RhoA (Homo sapiens, UniProt P61586); assay: RhoA-GTP pull-down (GST-Rhotekin Rho binding domain), MDA-MB-435 cells; assay type: cell-based; details: 2, 4, 5, or 10 μM
T3 construct: endogenous in cells; host or cells: MDA-MB-435
Description: as §1, §2

[4] = target: T4, Vav2 association with Rac1(G15A) (Homo sapiens, UniProt P63000, G15A); assay: Precipitation of activated GEFs with GST-Rac1(G15A) from MDA-MB-435 lysates (Vav2); assay type: binding; details: 1 h, p<0.005, read-out: association of Vav2 with Rac1(G15A), compared to controls
T4 construct: purchased Cell Biolabs, San Diego, Calif; host or cells: Vav2: endogenous, MDA-MB-435 lysate
Description: MDA-MB-435 cells in culture media were lysed in 1% Triton X-100, 20 mM HEPES, pH 7.4, 150 mM NaCl, 5 mM MgCl2, and protease inhibitors and processed. Equal amounts of protein from clarified lysates were incubated for 1 h at 4° C. with glutathione agarose beads conjugated to GST-Rac1(G15A) nucleotide free mutant (Cell Biolabs, San Diego, Calif.), that were pre-incubated (for 1 h) with vehicle or 2 or […] EHop-016. The beads were washed and the lysates and pulldowns immunoblotted for Tiam-1, Trio, or Vav2.

MDA-MB-231 cells [5] = assay: Lamellipodia formation by fluorescence microscopy (Rhodamine phalloidin), MDA-MB-231; assay type: cell-based, human; details: 4 μM, 24 h, control close to 100%
Description: Metastatic human cancer cell lines MDA-MB-435 and MDA-MB-231 (in DMEM with 10% FBS) were treated with vehicle (0.1% DMSO) or EHop-016 at 2 and 4 μM for 24 hrs. Cells were fixed, permeabilized, and stained with Rhodamine phalloidin to visualize F-actin.

MDA-MB-435 cells [6] = assay: Lamellipodia formation by fluorescence microscopy (Rhodamine phalloidin), MDA-MB-435; assay type: cell-based, human
PAK1 = PAK1 activity by Western blot for phospho-Thr 423, MDA-MB-435 cells; assay type: cell-based, human; details: both 2 and 4 μM, 24 h
Description: as §2
The effect of EHop-016 on Rac action was also determined by analyzing the activity of the Rac downstream effector PAK that regulates Rac-mediated lamellipodia extension and directed cell migration. […] Since Rac/PAK signaling regulates directed cell migration, the effect of EHop-016 at 0-5 μM was determined on migration of MDA-MB-435 cells by using a Transwell assay. As shown in FIG. 6(B), treatment with 2 and 5 μM EHop-016 reduced directed cell migration by ˜60% at concentrations that reduced Rac activity by ˜80% as shown in FIG. 2 and FIGS. 4A-4E. It is possible that Rac may not be the only regulator of cell migration in this highly invasive cancer cell line.

MDA-MB-435 cells [7] = assay: Transwell cell migration assay; assay type: cell-based, human; details: 2 and 5 μM, 24 h treatment, 4 h migration
Description: Quiescent MDA-MB-435 cells were treated with vehicle or varying concentrations of EHop-016 (0-5 μM) for 24 hrs. Exactly 2×10^5 cells were placed on the top well of Transwell chambers (Corning Life Sciences, Lowell, Mass.) with media containing 10% FBS in the bottom well. The number of cells that migrated to the underside of the membrane following 4 h incubation was quantified for each treatment.

MDA-MB-435 cells [8] = assay: MTT cell viability assay, MDA-MB-435; assay type: cell-based, human
Description: (§3) […] Cell viability was measured using the MTT [3-(4,5-dimethylthiazol-2-yl)-2,5-diphenyl tetrazolium bromide] cell survival and proliferation kit (Millipore, Inc., Billerica, Mass.) according to manufacturer's instructions.

MCF-10A cells = assay: MTT cell viability assay, MCF-10A mammary epithelial cells; assay type: cell-based
Description: as §3

MDA-MB-231 cells [9] = assay: MTT cell viability assay, MDA-MB-231; assay type: cell-based, human
[10] = Body weight and gross toxicity in athymic nude mice; assay type: in vivo; details: oral and intraperitoneal, 1 mg/kg once a week for 9 weeks; preliminary
Rac1 = Rac1 (Homo sapiens, UniProt P63000); assay: G-LISA Rac1 activation assay on MDA-MB-435 cell lysates; parameters: selectivity among Rho GTPases: dose or concentration left out as unconfirmed
[11] = target: Tiam-1 DH/PH domain / Rac1(G15A) (Homo sapiens, UniProt P63000, G15A); assay: Interaction of purified Tiam-1 DH/PH domain with Rac1(G15A) beads
Trio = Trio (Homo sapiens, UniProt O75962); details: cited from earlier work
Rac [12] = target: Rac (Homo sapiens, UniProt P63000); details: cited from earlier work
Rac [13] = details: fibroblasts; read-out: IC50 as Rac inhibitor in fibroblasts; cited from earlier work

T2 sequence (P60953 whole entry): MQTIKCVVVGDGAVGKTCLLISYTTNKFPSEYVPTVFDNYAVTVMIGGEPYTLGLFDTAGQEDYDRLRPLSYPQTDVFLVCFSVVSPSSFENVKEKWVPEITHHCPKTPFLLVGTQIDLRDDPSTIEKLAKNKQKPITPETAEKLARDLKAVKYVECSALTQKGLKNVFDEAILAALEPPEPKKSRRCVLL
T3 sequence (P61586 whole entry, the tested form may be a part): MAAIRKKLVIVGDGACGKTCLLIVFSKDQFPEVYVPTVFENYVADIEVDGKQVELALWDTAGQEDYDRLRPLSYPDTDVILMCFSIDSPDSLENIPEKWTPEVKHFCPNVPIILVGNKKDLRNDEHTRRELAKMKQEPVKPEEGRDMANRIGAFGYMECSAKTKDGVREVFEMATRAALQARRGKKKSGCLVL

O=c1cc(CN2CCOCC2)occ1OCCCCCSc1ccnc2cc(C(F)(F)F)ccc12 [EHT 1864]
concentration interfering with Rac-downstream effector interaction (Rac [1]): 10 to 50 µM | effective concentration as Rac inhibitor (Rac [1]): 10 µM

CCn1c2ccccc2c2cc(Nc3ccnc(NCCCN4CCOCC4)n3)ccc21 [EHop-016, N^4-(9-Ethyl-9H-carbazol-3-yl)-N2-(3-morpholin-4-yl-propyl)-pyrimidine-2,4-diamine]
inhibition of Rac activity (Rac [2]; 2 μM): 79% | inhibition of Rac activity (Rac [2]; 4 μM): 93% | IC50 (Rac [3]): ~3 µM | inhibition at 1 µM (Rac3): 58% | effect on Cdc42 activity (Cdc42; 2 or 4 μM): did not affect | inhibition at 5 µM (Cdc42; MDA-MB-435, 5 μM): 28% | inhibition at 10 µM (Cdc42; MDA-MB-435, 10 μM): 74% | increase of RhoA activity (RhoA): ~1.3 fold | remaining activity at 4 µM [4]: ~50% | cells that extended lamellipodia (MDA-MB-231 cells [5]): ~30% | effect on extension of filopodia (MDA-MB-435 cells [6]; 2 and 4 μM): did not affect | cells that extended lamellipodia (MDA-MB-435 cells [6]; both 2 and 4 μM, 24 h, MDA-MB-435, control close to 100%): ~30% | effect on PAK activity (phospho-Thr 423 PAK1) (PAK1): dramatically inhibits | reduction of directed cell migration (MDA-MB-435 cells [7]): ~60% | decrease in cell number compared to controls (MDA-MB-435 cells [8]; 5 μM, MDA-MB-435, only a trend): ~30% | cell viability remaining (MDA-MB-435 cells [8]; 10 μM, MDA-MB-435): ~50% | effect on cell viability (MDA-MB-435 cells [8]; 25 μM, MDA-MB-435): significant reduction | effect on cell viability (MDA-MB-435 cells [8]; 1 or 2 μM, MDA-MB-435): did not significantly affect | effect on cell viability (MDA-MB-435 cells [8]; low concentrations (<5 μM)): does not affect | decrease in cell number compared to controls (MCF-10A cells; 5 μM, MCF-10A, only a trend): ~30% | cell viability remaining (MCF-10A cells; 10 μM, MCF-10A): ~50% | effect on cell viability (MCF-10A cells; 25 μM, MCF-10A): significant reduction | effect on cell viability (MCF-10A cells; 1 or 2 μM, MCF10A): did not significantly affect | effect on cell viability (MDA-MB-231 cells [9]; 25 μM): significant reduction | effect on cell viability (MDA-MB-231 cells [9]; 1 or 2 μM): did not significantly affect | body weight and gross toxicity [10]: no change in body weight or gross indications of toxicity | potency relative to other currently available Rac inhibitors (Rac1): 10-50 times | selectivity among Rho GTPases (Rac1): specific for Rac1 and Rac3 | reduction of Rac activity (Rac1; 2 and 5 μM): ~80% | potency relative to NSC23766 (Rac1; MDA-MB-435 cells): approximately 100 times | IC50 (Rac1; read-out: IC50 for inhibition of Rac1 activity, MDA-MB-435 cells, 24 h treatment): 1.1 µM | concentration at which Tiam-1 DH/PH-Rac1(G15A) interaction is inhibited [11]: 40 µM | effect on interaction of Tiam-1 DH/PH domain with Rac1(G15A) ([11]; 5 μM): did not affect | inhibition at 50 µM ([11]; read-out: inhibition of Tiam-1/Rac1(G15A) interaction): 64%

Cc1cc(/C=c2/sc3nc4ccccc4n3c2=O)c(C)n1-c1ccccc1 [ITX3]
effective concentration (Trio): 50 to 100 µM

O=C(C#Cc1ccccc1)c1cccc([N+](=O)[O-])c1 [MLS000532223]
effect on GTP binding to Rac (Rac [12]): prevents GTP binding to Rac

CCN(CC)CCCC(C)Nc1nc(C)cc(Nc2ccc3nc(C)cc(N)c3c2)n1 (stereo not shown) [NSC23766, reference compound]
effect on lamellopodia formation (MDA-MB-435 cells [6]; 50 μM, MDA-MB-435): no significant effect | IC50 (Rac [13]): 50 to 100 µM
